The NIST ThermoML archive (doi:10.1021/je034203p)
± gives the expanded uncertainty stated by the source.

Experiment: xn = mol fraction of the nth substance listed
Conditions: 298.15 K, 101.3 kPa, Liquid; for viscosity: Capillary tube (Ostwald / Ubbelohde) method

ClC=C(Cl)Cl [trichloroethene] + CCOC(C)=O
Conditions | mass density [kg/m3] | viscosity [mPa·s]
x1 = 0.1086 | 944.2 ± 0.6 | 0.4658 ± 0.0072
x1 = 0.2151 | 998.6 ± 0.5 | 0.5023 ± 0.0073
x1 = 0.3189 | 1052.8 ± 0.6 | 0.5302 ± 0.0074
x1 = 0.4219 | 1108.6 ± 0.7 | 0.5564 ± 0.0076
x1 = 0.5226 | 1163.7 ± 0.8 | 0.5685 ± 0.0076
x1 = 0.6215 | 1220.2 ± 0.9 | 0.5705 ± 0.0076
x1 = 0.7185 | 1277.3 ± 1 | 0.5681 ± 0.0076
x1 = 0.8143 | 1335.6 ± 1.1 | 0.563 ± 0.0076
x1 = 0.908 | 1393.5 ± 1.2 | 0.5589 ± 0.0076
x1 = 1 | 1455.7 ± 1.3 | 0.551 ± 0.0075

CCO [ethanol] + ClC=C(Cl)Cl
x2 = 0
Conditions | mass density [kg/m3] | viscosity [mPa·s]
– | 787.4 ± 0.7 | 1.112 ± 0.011

ClC(Cl)=C(Cl)Cl [tetrachloroethene] + CCOC(C)=O
Conditions | mass density [kg/m3] | viscosity [mPa·s]
x1 = 0.0962 | 961.2 ± 0.6 | 0.4946 ± 0.0073
x1 = 0.1932 | 1030.8 ± 0.6 | 0.5525 ± 0.0075
x1 = 0.291 | 1100.6 ± 0.7 | 0.6095 ± 0.0078
x1 = 0.3899 | 1171 ± 0.8 | 0.6633 ± 0.0081
x1 = 0.4894 | 1241.8 ± 1 | 0.711 ± 0.0083
x1 = 0.5901 | 1313.6 ± 1.1 | 0.7481 ± 0.0085
x1 = 0.6911 | 1385.7 ± 1.2 | 0.7788 ± 0.0087
x1 = 0.7937 | 1460 ± 1.3 | 0.8078 ± 0.0089
x1 = 0.8964 | 1534.5 ± 1.5 | 0.8295 ± 0.009
x1 = 1 | 1610.2 ± 1.6 | 0.8474 ± 0.0091

CCOC(C)=O [ethyl acetate] + ClC(Cl)=C(Cl)Cl
x2 = 0
Conditions | mass density [kg/m3] | viscosity [mPa·s]
– | 894 ± 0.6 | 0.4274 ± 0.007

ClC(Cl)=C(Cl)Cl [tetrachloroethene] + CCCO
Conditions | mass density [kg/m3] | viscosity [mPa·s]
x1 = 0.0749 | 879 ± 0.6 | 1.79 ± 0.016
x1 = 0.1541 | 958.4 ± 0.6 | 1.632 ± 0.015
x1 = 0.2379 | 1038.5 ± 0.6 | 1.488 ± 0.014
x1 = 0.3269 | 1117.4 ± 0.8 | 1.35 ± 0.013
x1 = 0.4214 | 1197.5 ± 0.9 | 1.218 ± 0.012
x1 = 0.5229 | 1278.9 ± 1 | 1.11 ± 0.011
x1 = 0.6302 | 1360.9 ± 1.2 | 1.011 ± 0.01
x1 = 0.745 | 1442.8 ± 1.3 | 0.9253 ± 0.0096
x1 = 0.8679 | 1525.7 ± 1.5 | 0.8657 ± 0.0092
x1 = 1 | 1610.2 ± 1.6 | 0.8474 ± 0.0091

ClC=C(Cl)Cl [trichloroethene] + ClC(Cl)(Cl)Cl
Conditions | mass density [kg/m3] | viscosity [mPa·s]
x1 = 0.1068 | 1568.1 ± 1.5 | 0.8568 ± 0.0092
x1 = 0.212 | 1552.3 ± 1.5 | 0.8098 ± 0.0089
x1 = 0.315 | 1536.3 ± 1.5 | 0.7632 ± 0.0086
x1 = 0.4171 | 1520.8 ± 1.4 | 0.7186 ± 0.0084
x1 = 0.5178 | 1506.7 ± 1.4 | 0.6826 ± 0.0082
x1 = 0.6175 | 1495.3 ± 1.4 | 0.6511 ± 0.008
x1 = 0.7152 | 1484.6 ± 1.4 | 0.6226 ± 0.0079
x1 = 0.8114 | 1475 ± 1.3 | 0.5965 ± 0.0077
x1 = 0.9064 | 1464.6 ± 1.3 | 0.5727 ± 0.0076
x1 = 1 | 1455.7 ± 1.3 | 0.551 ± 0.0075

ClC(Cl)=C(Cl)Cl [tetrachloroethene] + ClC(Cl)(Cl)Cl
Conditions | mass density [kg/m3] | viscosity [mPa·s]
x1 = 0.0946 | 1583.5 ± 1.6 | 0.8943 ± 0.0094
x1 = 0.1904 | 1582.4 ± 1.6 | 0.8803 ± 0.0093
x1 = 0.2873 | 1582 ± 1.6 | 0.8675 ± 0.0092
x1 = 0.3853 | 1582.5 ± 1.6 | 0.8569 ± 0.0092
x1 = 0.4845 | 1583.8 ± 1.6 | 0.8504 ± 0.0091
x1 = 0.5859 | 1587.2 ± 1.6 | 0.8452 ± 0.0091
x1 = 0.6876 | 1590.1 ± 1.6 | 0.8407 ± 0.0091
x1 = 0.7904 | 1596.8 ± 1.6 | 0.8422 ± 0.0091
x1 = 0.8946 | 1603.2 ± 1.6 | 0.8445 ± 0.0091
x1 = 1 | 1610.2 ± 1.6 | 0.8474 ± 0.0091

ClC(Cl)=C(Cl)Cl [tetrachloroethene] + CO
Conditions | mass density [kg/m3] | viscosity [mPa·s]
x1 = 0.042 | 868.7 ± 0.6 | 0.5644 ± 0.0076
x1 = 0.0897 | 950.1 ± 0.6 | 0.5806 ± 0.0077
x1 = 0.1446 | 1030.1 ± 0.6 | 0.5981 ± 0.0078
x1 = 0.2082 | 1112 ± 0.7 | 0.6209 ± 0.0079
x1 = 0.2828 | 1192.6 ± 0.9 | 0.6449 ± 0.008
x1 = 0.372 | 1274.4 ± 1 | 0.6751 ± 0.0081
x1 = 0.4795 | 1355.9 ± 1.2 | 0.7069 ± 0.0083
x1 = 0.6123 | 1439.7 ± 1.3 | 0.7412 ± 0.0085
x1 = 0.7804 | 1524.3 ± 1.4 | 0.7875 ± 0.0088
x1 = 1 | 1610.2 ± 1.6 | 0.8474 ± 0.0091

Cc1ccccc1 [toluene] + ClC=C(Cl)Cl
x2 = 0
Conditions | mass density [kg/m3] | viscosity [mPa·s]
– | 860.5 ± 0.6 | 0.5641 ± 0.0076

ClC(Cl)=C(Cl)Cl [tetrachloroethene] + CCC(C)=O
Conditions | mass density [kg/m3] | viscosity [mPa·s]
x1 = 0.0888 | 875.6 ± 0.6 | 0.4563 ± 0.0071
x1 = 0.1798 | 955.1 ± 0.6 | 0.5095 ± 0.0073
x1 = 0.2732 | 1034.4 ± 0.6 | 0.5626 ± 0.0076
x1 = 0.3692 | 1114.1 ± 0.8 | 0.6147 ± 0.0078
x1 = 0.4672 | 1193.9 ± 0.9 | 0.6642 ± 0.0081
x1 = 0.5688 | 1275.5 ± 1 | 0.7069 ± 0.0083
x1 = 0.6719 | 1356.5 ± 1.1 | 0.7447 ± 0.0085
x1 = 0.7786 | 1441.7 ± 1.3 | 0.7802 ± 0.0087
x1 = 0.8873 | 1524.2 ± 1.4 | 0.8161 ± 0.0089
x1 = 1 | 1610.2 ± 1.6 | 0.8474 ± 0.0091

ClC=C(Cl)Cl [trichloroethene] + CC(C)O
Conditions | mass density [kg/m3] | viscosity [mPa·s]
x1 = 0.0866 | 850.4 ± 0.6 | 1.764 ± 0.016
x1 = 0.1754 | 916.6 ± 0.6 | 1.514 ± 0.014
x1 = 0.2667 | 982.1 ± 0.6 | 1.306 ± 0.012
x1 = 0.3613 | 1047.6 ± 0.6 | 1.119 ± 0.011
x1 = 0.4594 | 1113.9 ± 0.8 | 0.9582 ± 0.0098
x1 = 0.5602 | 1180.9 ± 0.9 | 0.8218 ± 0.009
x1 = 0.665 | 1249.2 ± 0.9 | 0.7173 ± 0.0084
x1 = 0.7724 | 1316.8 ± 1.1 | 0.6451 ± 0.008
x1 = 0.8846 | 1385.9 ± 1.2 | 0.6004 ± 0.0078
x1 = 1 | 1455.7 ± 1.3 | 0.551 ± 0.0075

ClC(Cl)=C(Cl)Cl [tetrachloroethene] + CCC(C)O
Conditions | mass density [kg/m3] | viscosity [mPa·s]
x1 = 0.0903 | 883.6 ± 0.6 | 2.66 ± 0.024
x1 = 0.1825 | 962.6 ± 0.6 | 2.28 ± 0.02
x1 = 0.2769 | 1042.5 ± 0.6 | 1.944 ± 0.017
x1 = 0.3734 | 1121.1 ± 0.8 | 1.667 ± 0.015
x1 = 0.4718 | 1201.2 ± 0.9 | 1.453 ± 0.013
x1 = 0.5733 | 1281.9 ± 1 | 1.262 ± 0.012
x1 = 0.6759 | 1362.6 ± 1.2 | 1.119 ± 0.011
x1 = 0.7817 | 1444.3 ± 1.3 | 1.005 ± 0.01
x1 = 0.8891 | 1525.8 ± 1.5 | 0.9029 ± 0.0094
x1 = 1 | 1610.2 ± 1.6 | 0.8474 ± 0.0091
